Measurements taken from patent US20160200733A1, “SUBSTITUTED THIENO[2,3-B]PYRIDINE-2-CARBOXAMIDE ANALOGS AS POSITIVE ALLOSTERIC MODULATORS OF THE MUSCARINIC ACETYLCHOLINE RECEPTOR M4” (Vanderbilt University, priority 2013, published 2016).

Biological target: T1, mAChR hM4 (Homo sapiens, UniProt P08173)
T1 construct: expressed in transfected cells; host or cells: CHO-K1 (Chinese hamster ovary) cells
T1 sequence (P08173 1-479): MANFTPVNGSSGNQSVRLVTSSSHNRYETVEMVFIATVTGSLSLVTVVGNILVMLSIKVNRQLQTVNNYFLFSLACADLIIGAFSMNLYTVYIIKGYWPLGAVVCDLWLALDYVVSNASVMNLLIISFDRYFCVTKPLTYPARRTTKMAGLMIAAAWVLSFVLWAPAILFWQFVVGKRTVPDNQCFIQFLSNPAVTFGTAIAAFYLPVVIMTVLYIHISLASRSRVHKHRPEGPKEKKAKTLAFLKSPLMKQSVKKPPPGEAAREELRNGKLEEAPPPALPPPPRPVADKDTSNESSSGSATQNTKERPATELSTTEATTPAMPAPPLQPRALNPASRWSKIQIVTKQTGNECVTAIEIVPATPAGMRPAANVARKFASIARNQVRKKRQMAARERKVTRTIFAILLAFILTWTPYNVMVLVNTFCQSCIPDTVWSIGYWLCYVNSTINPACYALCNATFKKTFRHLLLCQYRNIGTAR
Test: mAChR M4 cell-based functional assay (calcium flux, potentiation of EC20 acetylcholine response)
Conditions: mAChR hM4 cell-line; for EC50: >10,000 estimated for low potency compounds lacking a plateau; for Emax at 30 µM: % ACh maximum at 30 μM
How it was run: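 CHO-K1 cells expressing human M4, loaded with Fluo-4 Ca2+ dye; potentiation of an EC20 acetylcholine response read as increase in fluorescence static ratio. EC50 and Emax from concentration-dependent increase over the EC20 response.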

| Compound | EC50 [µM] | Emax at 30 µM [%] |
| --- | --- | --- |
| Cc1cnc2sc(C(=O)NCc3ccc(-c4ccnnc4)s3)cc2c1C [Compound 104, 4,5-dimethyl-N-((5-(pyridazin-4-yl)thiophen-2-yl)methyl)thieno[2,3-b]pyridine-2-carboxamide] | > 10 | – |
| Cc1cc(C)c2c(-c3cnn(C)c3)c(C(=O)NCc3ccc4c(c3)CCO4)sc2n1 [Compound 70, N-((2,3-dihydrobenzofuran-5-yl)methyl)-4,6-dimethyl-3-(1-methyl-1H-pyrazol-4-yl)thieno[2,3-b]pyridine-2-carboxamide] | > 10 | – |
| Cc1nc2sc(C(=O)NC3C4CC5CC(C4)CC3C5)c(-c3cnn(C)c3)c2c(C)c1Cl (stereo not drawn) [Compound 93, N-(adamantan-2-yl)-5-chloro-4,6-dimethyl-3-(1-methyl-1H-pyrazol-4-yl)thieno[2,3-b]pyridine-2-carboxamide] | > 10 | – |
| Cc1cc(C)c2cc(C(=O)NCc3ccc(-c4cccnc4F)cc3)sc2n1 [Compound 78, N-(4-(2-fluoropyridin-3-yl)benzyl)-4,6-dimethylthieno[2,3-b]pyridine-2-carboxamide] | > 10 | 34 |
| CCc1c(C(=O)NCc2ccc(S(C)(=O)=O)cc2)sc2nc(C)cc(C)c12 [Compound 38, 3-ethyl-4,6-dimethyl-N-(4-(methylsulfonyl)benzyl)thieno[2,3-b]pyridine-2-carboxamide] | 4.1 | 67 |
| COc1ccc(CNC(=O)c2sc3nc(C)cc(C)c3c2-c2cnn(C)c2)cc1F [Compound 66, N-(3-fluoro-4-methoxybenzyl)-4,6-dimethyl-3-(1-methyl-1H-pyrazol-4-yl)thieno[2,3-b]pyridine-2-carboxamide] | > 10 | – |
| Cc1nc2sc(C(=O)NC3CN(c4cccnc4)C3)c(-c3cnn(C)c3)c2c(C)c1Cl [Compound 92, 5-chloro-4,6-dimethyl-3-(1-methyl-1H-pyrazol-4-yl)-N-(1-(pyridin-3-yl)azetidin-3-yl)thieno[2,3-b]pyridine-2-carboxamide] | > 10 | – |
| Cc1nc2sc(C(=O)NCc3cnn(-c4ccccc4)c3)c(C3CC3)c2c(C)c1Cl [Compound 73, 5-chloro-3-cyclopropyl-4,6-dimethyl-N-((1-phenyl-1H-pyrazol-4-yl)methyl)thieno[2,3-b]pyridine-2-carboxamide] | > 10 | – |
| COc1ccc(C2CC2NC(=O)c2cc3c(C)cc(C)nc3s2)cc1 (stereo not drawn) [Compound 81, N-(2-(4-methoxyphenyl)cyclopropyl)-4,6-dimethylthieno[2,3-b]pyridine-2-carboxamide] | 0.82 | 30 |
| Cc1nc2sc(C(=O)N3CC4C(C3)C4(C)C)c(-c3cnn(C)c3)c2c(C)c1Cl (stereo not drawn) [Compound 109, (5-chloro-4,6-dimethyl-3-(1-methyl-1H-pyrazol-4-yl)thieno[2,3-b]pyridin-2-yl)(6,6-dimethyl-3-azabicyclo[3.1.0]hexan-3-yl)methanone] | > 10 | – |
| Cc1cc(C)c2cc(C(=O)NC3CN(c4cccnc4)C3)sc2n1 [Compound 75, 4,6-dimethyl-N-(1-(pyridin-3-yl)azetidin-3-yl)thieno[2,3-b]pyridine-2-carboxamide] | 1.2 | 67 |
| Cc1cc(C)c2cc(C(=O)NCc3ccc(S(C)(=O)=O)cc3)sc2n1 [Compound 35, 4,6-dimethyl-N-(4-(methylsulfonyl)benzyl)thieno[2,3-b]pyridine-2-carboxamide] | > 10 | 41 |
| Cc1cc(C)c2cc(C(=O)N3CC(c4ccccc4)C3)sc2n1 [Compound 82, (4,6-dimethylthieno[2,3-b]pyridin-2-yl)(3-phenylazetidin-1-yl)methanone] | 2.4 | 34 |

The remaining lines, values ahead:

| EC50 [µM] | Emax at 30 µM [%] | Compound |
| --- | --- | --- |
| > 10 | – | Cc1nc2sc(C(=O)NC3CCS(=O)(=O)C3)c(C3CC3)c2c(C)c1Cl (stereo not drawn) [Compound 51, 5-chloro-3-cyclopropyl-N-(1,1-dioxidotetrahydrothiophen-3-yl)-4,6-dimethylthieno[2,3-b]pyridine-2-carboxamide] |
| > 10 | 67 | Cc1cc(C)c2c(C)c(C(=O)NC3CCOC3)sc2n1 (stereo not drawn) [Compound 22, 3,4,6-trimethyl-N-(tetrahydrofuran-3-yl)thieno[2,3-b]pyridine-2-carboxamide] |
| > 10 | – | COc1ccc2c(c1)CCN(C(=O)c1sc3nc(C)cc(C)c3c1C)C2 [Compound 28, (6-methoxy-3,4-dihydroisoquinolin-2(1H)-yl)(3,4,6-trimethylthieno[2,3-b]pyridin-2-yl)methanone] |
| 1.5 | 56 | Cc1nc2sc(C(=O)NC3CC3)c(Cl)c2c(C)c1Cl [Compound 118, 3,5-dichloro-N-cyclopropyl-4,6-dimethylthieno[2,3-b]pyridine-2-carboxamide] |
| > 10 | – | Cc1nc2sc(C(=O)N[C@H](C)C3CC3)c(Cl)c2c(C)c1Cl [Compound 121, (R)-3,5-dichloro-N-(1-cyclopropylethyl)-4,6-dimethylthieno[2,3-b]pyridine-2-carboxamide] |
| > 10 | – | Cc1nc2sc(C(=O)NC3CC3)c(-c3cnn(C)c3)c2c(C)c1Cl [Compound 90, 5-chloro-N-cyclopropyl-4,6-dimethyl-3-(1-methyl-1H-pyrazol-4-yl)thieno[2,3-b]pyridine-2-carboxamide] |
| > 10 | – | Cc1cc(C)c2c(Br)c(C(=O)NCC(C)C)sc2n1 [Compound 11, 3-bromo-N-isobutyl-4,6-dimethylthieno[2,3-b]pyridine-2-carboxamide] |
| 1.2 | 43 | Cc1nc2sc(C(=O)NC3CCOC3)c(Cl)c2c(C)c1Cl (stereo not drawn) [Compound 124, 3,5-dichloro-4,6-dimethyl-N-(tetrahydrofuran-3-yl)thieno[2,3-b]pyridine-2-carboxamide] |
| > 10 | – | Cc1nc2sc(C(=O)NC3CCCOC3)c(-c3cnn(C)c3)c2c(C)c1Cl (stereo not drawn) [Compound 88, 5-chloro-4,6-dimethyl-3-(1-methyl-1H-pyrazol-4-yl)-N-(tetrahydro-2H-pyran-3-yl)thieno[2,3-b]pyridine-2-carboxamide] |
| > 10 | – | Cc1nc2sc(C(=O)NC3CCN(C)CC3)c(C)c2c(C)c1Cl [Compound 58, 5-chloro-3,4,6-trimethyl-N-(1-methylpiperidin-4-yl)thieno[2,3-b]pyridine-2-carboxamide] |
| 3.9 | 44 | Cc1cc(C)c2c(Br)c(C(=O)N3CCCC3)sc2n1 [Example 3, (3-bromo-4,6-dimethylthieno[2,3-b]pyridin-2-yl)(pyrrolidin-1-yl)methanone] |
| > 10 | – | Cc1cc(C)c2c(Br)c(C(=O)NC(C)C)sc2n1 [Example 1, 3-bromo-N-isopropyl-4,6-dimethylthieno[2,3-b]pyridine-2-carboxamide] |
| 2.6 | 51 | COc1ccc(CNC(=O)c2sc3nc(C)cc(C)c3c2I)cc1 [Compound 16, 3-iodo-N-(4-methoxybenzyl)-4,6-dimethylthieno[2,3-b]pyridine-2-carboxamide] |
| > 10 | – | Cc1nc2sc(C(=O)NC3COC3)c(-c3cccs3)c2c(C)c1Cl [Compound 115, 5-chloro-4,6-dimethyl-N-(oxetan-3-yl)-3-(thiophen-2-yl)thieno[2,3-b]pyridine-2-carboxamide] |
| > 10 | – | Cc1nc2sc(C(=O)NC3CCS(=O)(=O)C3)c(-c3cnn(C)c3)c2c(C)c1Cl (stereo not drawn) [Compound 89, 5-chloro-N-(1,1-dioxidotetrahydrothiophen-3-yl)-4,6-dimethyl-3-(1-methyl-1H-pyrazol-4-yl)thieno[2,3-b]pyridine-2-carboxamide] |
